ChEMBL document CHEMBL2150926 (J Med Chem, 2011)
In brackets after ≈: the same amount, converted by molar mass.

Assays:
[1] = molecular target: Protein kinase C delta type (Homo sapiens, UniProt Q05655); test: Inhibition of PKCdelta by scintillation proximity assay
[2] = molecular target: T1, Protein kinase C epsilon type (Homo sapiens, UniProt Q02156); test: Inhibition of PKCepsilon by scintillation proximity assay
T1 sequence (Q02156 whole entry): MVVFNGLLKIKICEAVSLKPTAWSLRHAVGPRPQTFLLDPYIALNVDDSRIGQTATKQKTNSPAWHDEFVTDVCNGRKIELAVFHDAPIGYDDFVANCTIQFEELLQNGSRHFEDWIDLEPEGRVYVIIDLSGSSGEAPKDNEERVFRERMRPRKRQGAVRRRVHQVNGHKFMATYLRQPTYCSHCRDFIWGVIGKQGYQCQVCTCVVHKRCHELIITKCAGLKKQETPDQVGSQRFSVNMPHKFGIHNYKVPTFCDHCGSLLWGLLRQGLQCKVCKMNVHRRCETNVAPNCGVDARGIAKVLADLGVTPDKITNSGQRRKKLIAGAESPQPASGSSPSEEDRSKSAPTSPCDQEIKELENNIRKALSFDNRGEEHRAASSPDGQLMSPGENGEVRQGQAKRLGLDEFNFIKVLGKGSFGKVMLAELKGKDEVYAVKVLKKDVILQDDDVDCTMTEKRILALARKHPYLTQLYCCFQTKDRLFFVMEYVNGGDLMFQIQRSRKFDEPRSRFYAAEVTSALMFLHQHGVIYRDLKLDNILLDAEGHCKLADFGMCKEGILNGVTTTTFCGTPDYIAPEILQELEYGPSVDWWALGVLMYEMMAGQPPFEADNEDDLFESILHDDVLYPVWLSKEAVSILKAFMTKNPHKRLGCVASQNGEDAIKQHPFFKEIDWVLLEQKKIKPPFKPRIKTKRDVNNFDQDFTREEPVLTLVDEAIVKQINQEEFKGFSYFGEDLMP

[3] = molecular target: Protein kinase C beta type (Homo sapiens, UniProt P05771); test: Inhibition of PKCbeta-1 by scintillation proximity assay
Protein kinase C beta type, sequence (P05771 whole entry): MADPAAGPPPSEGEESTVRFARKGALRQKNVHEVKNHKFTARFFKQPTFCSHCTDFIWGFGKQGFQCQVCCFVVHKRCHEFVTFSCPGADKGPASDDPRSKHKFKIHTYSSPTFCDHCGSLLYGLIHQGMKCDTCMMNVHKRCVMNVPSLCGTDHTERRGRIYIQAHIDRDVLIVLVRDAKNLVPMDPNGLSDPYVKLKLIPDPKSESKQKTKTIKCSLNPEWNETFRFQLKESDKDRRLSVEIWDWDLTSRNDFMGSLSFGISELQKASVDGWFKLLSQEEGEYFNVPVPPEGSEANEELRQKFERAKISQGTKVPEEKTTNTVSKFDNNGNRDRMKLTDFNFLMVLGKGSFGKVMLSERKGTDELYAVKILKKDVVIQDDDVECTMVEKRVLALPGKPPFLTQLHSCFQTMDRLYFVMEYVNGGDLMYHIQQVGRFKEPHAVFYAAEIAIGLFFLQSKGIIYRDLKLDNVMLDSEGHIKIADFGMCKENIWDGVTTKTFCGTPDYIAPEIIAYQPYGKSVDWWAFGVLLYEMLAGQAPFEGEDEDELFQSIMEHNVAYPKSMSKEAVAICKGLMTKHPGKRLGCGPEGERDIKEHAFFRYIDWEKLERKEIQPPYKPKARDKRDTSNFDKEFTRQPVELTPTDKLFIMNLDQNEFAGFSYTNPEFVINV

[4] = Immunosuppressive activity in human lymphocytes assessed as alloantigen-induced T cell proliferation by mixed lymphocyte reaction assay; type: functional, cell-based
[5] = Immunosuppressive activity in mouse lymphocytes assessed as alloantigen-induced T cell proliferation by mixed lymphocyte reaction assay; type: functional, cell-based
[6] = molecular target: Protein kinase C theta type (Homo sapiens, UniProt Q04759); test: Inhibition of PKCtheta by scintillation proximity assay
Protein kinase C theta type, sequence (Q04759 whole entry): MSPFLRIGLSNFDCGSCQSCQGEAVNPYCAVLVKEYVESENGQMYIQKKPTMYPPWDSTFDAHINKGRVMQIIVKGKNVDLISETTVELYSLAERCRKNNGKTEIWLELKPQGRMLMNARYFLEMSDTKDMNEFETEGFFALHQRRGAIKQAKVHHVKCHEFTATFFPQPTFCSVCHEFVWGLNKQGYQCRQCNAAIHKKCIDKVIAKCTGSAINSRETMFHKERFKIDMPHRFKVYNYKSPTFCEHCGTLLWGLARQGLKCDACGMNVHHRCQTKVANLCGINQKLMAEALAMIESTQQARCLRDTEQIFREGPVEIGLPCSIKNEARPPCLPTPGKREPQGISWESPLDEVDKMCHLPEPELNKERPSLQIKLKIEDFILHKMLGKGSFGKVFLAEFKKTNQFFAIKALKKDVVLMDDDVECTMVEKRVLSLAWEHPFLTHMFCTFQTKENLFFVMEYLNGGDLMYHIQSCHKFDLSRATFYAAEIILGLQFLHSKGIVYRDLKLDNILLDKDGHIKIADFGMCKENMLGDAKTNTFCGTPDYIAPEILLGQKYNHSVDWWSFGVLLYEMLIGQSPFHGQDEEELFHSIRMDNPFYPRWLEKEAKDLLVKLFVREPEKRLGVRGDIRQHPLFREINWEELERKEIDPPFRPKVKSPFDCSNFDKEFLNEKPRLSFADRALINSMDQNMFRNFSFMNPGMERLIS

[7] = molecular target: Protein kinase C alpha type (Homo sapiens, UniProt P17252); test: Inhibition of PKCalpha by scintillation proximity assay
Blood = test: AUC (0 to 24 hrs) in Wistar rat blood at 30 mg/kg, po administered as single dose; type: ADME, organism-based; parameters: time < 24 hr, dose 30 mg/kg, route oral; conditions: in vivo
[8] = molecular target: Protein kinase C eta type (Homo sapiens, UniProt P24723); test: Inhibition of PKCeta by scintillation proximity assay
Protein kinase C eta type, sequence (P24723 whole entry): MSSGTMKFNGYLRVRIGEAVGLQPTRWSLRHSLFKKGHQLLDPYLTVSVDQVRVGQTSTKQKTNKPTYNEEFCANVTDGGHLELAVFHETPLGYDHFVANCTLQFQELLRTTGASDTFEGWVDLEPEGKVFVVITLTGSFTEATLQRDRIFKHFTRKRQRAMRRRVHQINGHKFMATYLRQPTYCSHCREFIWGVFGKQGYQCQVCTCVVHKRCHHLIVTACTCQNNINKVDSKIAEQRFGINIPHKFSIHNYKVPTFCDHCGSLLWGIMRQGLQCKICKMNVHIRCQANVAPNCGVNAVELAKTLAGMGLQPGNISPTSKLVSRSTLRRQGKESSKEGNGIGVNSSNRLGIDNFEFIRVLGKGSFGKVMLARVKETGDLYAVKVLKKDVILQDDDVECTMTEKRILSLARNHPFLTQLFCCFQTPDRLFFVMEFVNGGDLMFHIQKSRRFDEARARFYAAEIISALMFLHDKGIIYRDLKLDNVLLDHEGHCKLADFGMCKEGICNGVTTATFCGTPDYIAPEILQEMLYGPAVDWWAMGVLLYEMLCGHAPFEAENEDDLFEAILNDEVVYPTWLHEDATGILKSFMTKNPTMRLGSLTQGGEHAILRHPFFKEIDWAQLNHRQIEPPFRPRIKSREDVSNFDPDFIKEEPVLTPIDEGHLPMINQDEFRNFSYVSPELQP

P-gp (human) = test: Efflux ratio of permeability from basolateral to apical to apical to basolateral in MDCK cells transfected with human p-gp gene; type: ADME, cell-based, Canis lupus familiaris; conditions: dog, MDCK-MDR1
[9] = Intrinsic solubility of the compound at pH 6.8; type: physicochemical; conditions: buffer, read-out: Intrinsic_solubility
[10] = Octanol-water partition coefficient, log P of the compound; type: physicochemical
[11] = Volume of distribution at steady state in OFA rat at 5 mg/kg, iv; type: ADME, organism-based; parameters: dose 5 mg/kg, route intravenous; conditions: in vivo, read-out: Vdss
[12] = Oral bioavailability in OFA rat at 20 mg/kg; type: ADME, organism-based; conditions: in vivo
Rattus norvegicus [13] = test: Dose normalized AUC (0 to infinity) in OFA rat 20 mg/kg, po; type: ADME, organism-based; parameters: dose 20 mg/kg, route oral; conditions: in vivo
Rattus norvegicus [14] = test: Dose normalized AUC (0 to infinity) in OFA rat at 5 mg/kg, iv; type: ADME, organism-based; parameters: dose 5 mg/kg, route intravenous; conditions: in vivo
[15] = Intrinsic clearance in OFA rat liver microsomes at 20 mg/kg, po; type: ADME, Microsome; parameters: dose 20 mg/kg, route oral; conditions: read-out: CLH
[16] = Total plasma clearance in OFA rat at 5 mg/kg, iv; type: ADME, organism-based; parameters: dose 5 mg/kg, route intravenous
Rattus norvegicus [17] = test: AUC (0 to 24 hrs) in Wistar rat at 30 mg/kg, po administered as single dose; type: ADME, organism-based, Plasma; parameters: time < 24 hr, dose 30 mg/kg, route oral; conditions: in vivo
[18] = Tmax in OFA rat at 20 mg/kg, po; type: ADME, organism-based; parameters: dose 20 mg/kg, route oral; conditions: in vivo
[19] = Elimination half life in OFA rat at 5 mg/kg, iv; type: ADME, organism-based; parameters: dose 5 mg/kg, route intravenous; conditions: in vivo, read-out: beta t1/2 (converted)
[20] = Lipophilicity, log D of the compound at pH 6.8; type: physicochemical; conditions: buffer
Spleen = test: AUC (0 to 24 hrs) in Wistar rat spleen at 30 mg/kg, po administered as single dose; type: ADME, organism-based; parameters: time < 24 hr, dose 30 mg/kg, route oral; conditions: in vivo
[21] = Solubility of the compound in fed state simulated intestinal fluid at pH 5.8; type: physicochemical
Thymus = test: AUC (0 to 24 hrs) in Wistar rat thymus at 30 mg/kg, po administered as single dose; type: ADME, organism-based; parameters: time < 24 hr, dose 30 mg/kg, route oral; conditions: in vivo
[22] = Oral bioavailability in Balb/c mouse at 30 mg/kg; type: ADME, organism-based; conditions: in vivo
[23] = Tmax in Balb/c mouse at 30 mg/kg, po; type: ADME, organism-based; parameters: dose 30 mg/kg, route oral; conditions: in vivo
[24] = Volume of distribution at steady state in cynomolgus monkey at 5 mg/kg, iv; type: ADME, organism-based, Macaca fascicularis; parameters: dose 5 mg/kg, route intravenous; conditions: in vivo, read-out: Vdss
Mus musculus [25] = test: Dose normalized AUC (0 to infinity) in Balb/c mouse at 5 mg/kg, iv; type: ADME, organism-based; parameters: dose 5 mg/kg, route intravenous; conditions: in vivo
[26] = Intrinsic clearance in Balb/c mouse liver microsomes at 30 mg/kg, po; type: ADME, Microsome; parameters: dose 30 mg/kg, route oral; conditions: read-out: CLH
Cynomolgus monkey [27] = test: Dose normalized AUC (0 to infinity) in cynomolgus monkey at 20 mg/kg, po; type: ADME, organism-based, Macaca fascicularis; parameters: dose 20 mg/kg, route oral; conditions: in vivo
[28] = Fraction unbound in OFA rat plasma at 20 mg/kg, po; type: ADME, organism-based; parameters: dose 20 mg/kg, route oral
[29] = Apparent permeability in human Caco2 cells; type: ADME, cell-based; conditions: Caco-2
[30] = Fraction unbound in cynomolgus monkey plasma at 20 mg/kg, po; type: ADME, organism-based, Macaca fascicularis; parameters: dose 20 mg/kg, route oral
[31] = Elimination half life in Balb/c mouse at 5 mg/kg, iv; type: ADME, organism-based; parameters: dose 5 mg/kg, route intravenous; conditions: in vivo, read-out: beta t1/2 (converted)
Cynomolgus monkey [32] = test: Dose normalized AUC (0 to infinity) in cynomolgus monkey at 5 mg/kg, iv; type: ADME, organism-based, Macaca fascicularis; parameters: dose 5 mg/kg, route intravenous; conditions: in vivo
[33] = Oral bioavailability in cynomolgus monkey at 20 mg/kg; type: ADME, organism-based, Macaca fascicularis; conditions: in vivo
Mus musculus [34] = test: Drug metabolism in po dosed Balb/c mouse assessed as 3-(1H-Indol-3-yl)-4-(2-piperazin-1-yl-quinazolin-4-yl)pyrrole-2,5-dione level relative to parent compound; type: ADME, organism-based; conditions: in vivo
[35] = Solubility of the compound in simulated gastric fluid at pH 2.0; type: physicochemical
[36] = Total plasma clearance in Balb/c mouse at 5 mg/kg, iv; type: ADME, organism-based; parameters: dose 5 mg/kg, route intravenous
[37] = Solubility of the compound in fasted state simulated intestinal fluid at pH 6.5; type: physicochemical
[38] = Elimination half life in cynomolgus monkey at 5 mg/kg, iv; type: ADME, organism-based, Macaca fascicularis; parameters: dose 5 mg/kg, route intravenous; conditions: in vivo, read-out: beta t1/2 (converted)
[39] = Volume of distribution at steady state in Balb/c mouse at 5 mg/kg, iv; type: ADME, organism-based; parameters: dose 5 mg/kg, route intravenous; conditions: in vivo, read-out: Vdss
[40] = Tmax in cynomolgus monkey at 20 mg/kg, po; type: ADME, organism-based, Macaca fascicularis; parameters: dose 20 mg/kg, route oral; conditions: in vivo
[41] = AUC (0 to 24 hrs) in Wistar rat mesenteric lymph node at 30 mg/kg, po administered as single dose; type: ADME, organism-based; parameters: time < 24 hr, dose 30 mg/kg, route oral; conditions: in vivo
[42] = Intrinsic clearance in cynomolgus monkey liver microsomes at 20 mg/kg, po; type: ADME, Macaca fascicularis, Microsome; parameters: dose 20 mg/kg, route oral; conditions: read-out: CLH
[43] = Total plasma clearance in cynomolgus monkey at 5 mg/kg, iv; type: ADME, organism-based, Macaca fascicularis; parameters: dose 5 mg/kg, route intravenous
Mus musculus [44] = test: Dose normalized AUC (0 to infinity) in Balb/c mouse at 30 mg/kg, po; type: ADME, organism-based; parameters: dose 30 mg/kg, route oral; conditions: in vivo
Cytochrome P450 3A4 = Cytochrome P450 3A4 (Homo sapiens, UniProt P08684); test: Inhibition of CYP3A4-catalyzed midazolam 1'-hydroxylation in human liver microsomes; type: ADME, Microsome
Cytochrome P450 3A4, sequence (P08684 whole entry): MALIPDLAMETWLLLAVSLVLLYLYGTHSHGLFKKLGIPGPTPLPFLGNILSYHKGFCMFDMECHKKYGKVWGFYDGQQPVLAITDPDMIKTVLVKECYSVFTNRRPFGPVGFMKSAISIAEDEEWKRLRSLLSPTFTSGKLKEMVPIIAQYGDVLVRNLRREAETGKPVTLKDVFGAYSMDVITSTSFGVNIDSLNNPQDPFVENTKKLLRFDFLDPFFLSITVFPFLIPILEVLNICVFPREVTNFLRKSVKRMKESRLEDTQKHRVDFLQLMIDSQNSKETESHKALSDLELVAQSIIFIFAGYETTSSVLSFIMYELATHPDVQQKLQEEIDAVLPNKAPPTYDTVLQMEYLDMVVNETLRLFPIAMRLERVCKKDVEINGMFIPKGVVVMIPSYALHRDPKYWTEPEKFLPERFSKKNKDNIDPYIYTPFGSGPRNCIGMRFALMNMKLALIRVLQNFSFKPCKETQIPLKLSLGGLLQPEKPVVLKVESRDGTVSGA

Protein kinase C delta type, sequence (Q05655 whole entry): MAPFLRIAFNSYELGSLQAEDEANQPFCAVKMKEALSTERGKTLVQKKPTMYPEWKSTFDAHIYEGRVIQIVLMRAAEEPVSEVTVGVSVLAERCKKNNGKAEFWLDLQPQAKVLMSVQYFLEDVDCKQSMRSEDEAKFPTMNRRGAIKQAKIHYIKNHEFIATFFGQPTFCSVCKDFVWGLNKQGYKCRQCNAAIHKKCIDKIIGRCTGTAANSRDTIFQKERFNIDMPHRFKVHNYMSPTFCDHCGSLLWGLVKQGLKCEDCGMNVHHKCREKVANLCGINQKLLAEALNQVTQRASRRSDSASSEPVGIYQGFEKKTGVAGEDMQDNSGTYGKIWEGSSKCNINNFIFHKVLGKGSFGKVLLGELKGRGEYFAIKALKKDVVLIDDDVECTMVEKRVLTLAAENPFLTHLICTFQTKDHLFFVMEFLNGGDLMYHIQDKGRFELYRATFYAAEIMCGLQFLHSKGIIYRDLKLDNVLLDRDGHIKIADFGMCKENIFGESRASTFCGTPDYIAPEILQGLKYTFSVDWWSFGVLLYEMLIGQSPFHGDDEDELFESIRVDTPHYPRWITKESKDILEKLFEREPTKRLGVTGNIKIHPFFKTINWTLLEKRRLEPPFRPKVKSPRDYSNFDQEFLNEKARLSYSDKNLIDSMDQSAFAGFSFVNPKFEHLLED

O=C1NC(=O)C(c2c[nH]c3ccccc23)=C1c1nc(N2CCNCC2)nc2ccccc12
IC50 [1]: 0.4 nM
IC50 [2]: 0.9 nM
IC50 [3]: 0.6 nM
IC50 [4]: 51 nM
IC50 [5]: 854 nM
IC50 [6]: 0.5 nM
IC50 [7]: 0.5 nM
AUC (Blood): 85 ng·h/g
IC50 [8]: 1 nM

Cn1cc(C2=C(c3nc(N4CCNCC4)nc4ccccc34)C(=O)NC2=O)c2ccccc21
IC50 [1]: 1 nM
efflux ratio (P-gp (human)): 64.4
solubility [9]: 195 µg/mL (≈ 445 µM)
logP [10]: 2.3
Vd [11]: 10 L/kg
bioavailability [12]: 24%
AUC/dose (Rattus norvegicus [13]): 161 ng·h/mL
IC50 [2]: 3.8 nM
IC50 [3]: 1.4 nM
IC50 [4]: 99 nM
IC50 [5]: 378 nM
IC50 [6]: 1.2 nM
AUC/dose (Rattus norvegicus [14]): 671 ng·h/mL
IC50 [7]: 1.4 nM
microsomal CLint [15]: 112 µL/min/mg
clearance [16]: 25 mL/min/kg
AUC (Rattus norvegicus [17]): 1729 ng·h/g
Tmax [18]: 0.5 h
half-life [19]: 4.6 h
logD [20]: 0.6
IC50 [8]: 3.3 nM

CN1CCN(c2nc(C3=C(c4c[nH]c5ccccc45)C(=O)NC3=O)c3ccccc3n2)CC1 [SOTRASTAURIN]
AUC (Spleen): 30887 ng·h/g
solubility [21]: 530 µg/mL (≈ 1210 µM)
solubility [9]: 19 µg/mL (≈ 43.3 µM)
logP [10]: 2.9
AUC (Thymus): 12644 ng·h/g
bioavailability [22]: 19%
Tmax [23]: 0.5 h
Vd [24]: 5.9 L/kg
AUC/dose (Mus musculus [25]): 371 ng·h/mL
microsomal CLint [26]: 248 µL/min/mg
AUC/dose (Cynomolgus monkey [27]): 128 ng·h/mL
fraction unbound [28]: 0.011
AUC/dose (Rattus norvegicus [13]): 110 ng·h/mL
Papp [29]: 4.5 ×10⁻⁶ cm/s
fraction unbound [30]: 0.024
half-life [31]: 2.5 h
AUC/dose (Cynomolgus monkey [32]): 720 ng·h/mL
bioavailability [33]: 18%
IC50 [4]: 37 nM
fold change (FC) (Mus musculus [34]): 2
IC50 [5]: 150 nM
solubility [35]: 780 µg/mL (≈ 1780 µM)
AUC/dose (Rattus norvegicus [14]): 326 ng·h/mL
clearance [36]: 45 mL/min/kg
microsomal CLint [15]: 505 µL/min/mg
solubility [37]: 410 µg/mL (≈ 935 µM)
AUC (Rattus norvegicus [17]): 1952 ng·h/g
half-life [38]: 4.8 h
Vd [39]: 3.1 L/kg
Tmax [40]: 8 h
AUC [41]: 20478 ng·h/g
microsomal CLint [42]: 433 µL/min/mg
logD [20]: 2.4
clearance [43]: 23 mL/min/kg
AUC/dose (Mus musculus [44]): 72 ng·h/mL
Ki (Cytochrome P450 3A4): 2900 nM
